PubChem BioAssay AID1919007 (Molecular Pharmacology Branch, DTP, NCI, 2023)

Tested on: A498 complex spheroids with HUVEC/MSC, growth
Assay: Anticancer human tumor A498 cell line growth inhibition [AhR];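 note: seven day exposure starting three days after spheroid seeding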;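 for viability, T/C: luminescence signal used as a surrogate for viable cells; luminescence viability scaled so 100% equals DMSO vehicle wells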
Conditions: for IC50: curve of first compound; for viability, T/C: stronger effect = lower value
Summary of the method: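 Agents were dosed in half-log steps down from roughly clinical Cmax, or from 10 microM where Cmax was unknown, alone and with AhR antagonists. Read-out: percent test/control growth of tumor spheroids containing HUVEC and MSC stromal cells.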

Nc1ncn(C2CC(O)C(CO)S2)c(=O)n1 (stereo not given) + Cc1cncc(-c2nc(NCCc3c[nH]c4ccccc34)c3ncn(C(C)C)c3n2)c1
IC50 (second compound 0.1 µM): > 300 nM
IC50 (second compound 0.316 µM): > 300 nM
IC50 (second compound 1 µM): > 300 nM
IC50 (second compound 3.16 µM): < 0.949 nM
IC50 (second compound 10 µM): < 0.949 nM
viability, T/C (second compound 0.1 µM, first compound 0.000949 µM): 90.1%
viability, T/C (second compound 0.1 µM, first compound 0.003 µM): 89.7%
viability, T/C (second compound 0.1 µM, first compound 0.00949 µM): 92.5%
viability, T/C (second compound 0.1 µM, first compound 0.03 µM): 77.8%
viability, T/C (second compound 0.1 µM, first compound 0.0949 µM): 73.7%
viability, T/C (second compound 0.1 µM, first compound 0.3 µM): 63.3%
viability, T/C (second compound 0.316 µM, first compound 0.000949 µM): 94.1%
viability, T/C (second compound 0.316 µM, first compound 0.003 µM): 104%
viability, T/C (second compound 0.316 µM, first compound 0.00949 µM): 95%
viability, T/C (second compound 0.316 µM, first compound 0.03 µM): 86.9%
viability, T/C (second compound 0.316 µM, first compound 0.0949 µM): 80.6%
viability, T/C (second compound 0.316 µM, first compound 0.3 µM): 68.3%
viability, T/C (second compound 1 µM, first compound 0.000949 µM): 83.6%
viability, T/C (second compound 1 µM, first compound 0.003 µM): 86%
viability, T/C (second compound 1 µM, first compound 0.00949 µM): 80.4%
viability, T/C (second compound 1 µM, first compound 0.03 µM): 73.4%
viability, T/C (second compound 1 µM, first compound 0.0949 µM): 75.2%
viability, T/C (second compound 1 µM, first compound 0.3 µM): 68.2%
viability, T/C (second compound 3.16 µM, first compound 0.000949 µM): 32.3%
viability, T/C (second compound 3.16 µM, first compound 0.003 µM): 33.6%
viability, T/C (second compound 3.16 µM, first compound 0.00949 µM): 36.5%
viability, T/C (second compound 3.16 µM, first compound 0.03 µM): 27.1%
viability, T/C (second compound 3.16 µM, first compound 0.0949 µM): 29.6%
viability, T/C (second compound 3.16 µM, first compound 0.3 µM): 28.2%
viability, T/C (second compound 10 µM, first compound 0.000949 µM): 5.79%
viability, T/C (second compound 10 µM, first compound 0.003 µM): 5.22%
viability, T/C (second compound 10 µM, first compound 0.00949 µM): 5.53%
viability, T/C (second compound 10 µM, first compound 0.03 µM): 6.62%
viability, T/C (second compound 10 µM, first compound 0.0949 µM): 4.93%
viability, T/C (second compound 10 µM, first compound 0.3 µM): 5.47%
